How the values were obtained:
blood GIP level = assay: Effect of oral GPR119 agonist on plasma GIP level (rodent total GIP ELISA) in wild-type mice, with oral glucose bolus; format: in vivo, C57blk/6 male mice; conditions: 20 mg/kg per orally vs vehicle PET, FIG. 1A
Procedure: A. C57blk/6 male mice were fasted for 18 hours, and randomly assigned into fourteen groups with n=6 for each group. Mice were administered per orally with vehicle (PET; 80% PEG400, 10% ethanol, 10% Tween80) or with a GPR119 agonist in accordance with the present invention (Compound 1Z; (2-Fluoro-4-methanesulfonyl-phenyl)-{6-[4-(3-isopropyl-[1,2,4]oxadiazol-5-yl)-piperidin-1-yl]-5-nitro-pyrimidin-4-yl}-amine) at 20 mg/kg, as indicated in FIG. 1A. Thirty minutes after treatment, a glucose bolus at 3 g/kg were delivered per orally, and plasma were collected at 0 (no glucose bolus), 2, 5, 10, 20, 40 and 60 minutes after glucose bolus. Plasma GIP levels were determined by using a rodent GIP ELISA kit purchased from Linco Research Laboratory [Rat/Mouse Gastric Inhibitory Polypeptide (Total) ELISA Catalog #EZRMGIP-55K], following instructions provided by the supplier. […]
B. C57blk/6 male mice were fasted for 18 hours, and randomly assigned into fourteen groups with n=6 for each group. […] Plasma GIP levels were determined by using a rodent GIP ELISA kit purchased from Linco Research Laboratory [Rat/Mouse Gastric Inhibitory Polypeptide (Total) ELISA Catalog #EZRMGIP-55K], following instructions provided by the supplier. […] Mean values of GIP concentration were calculated based on results with six mice in each group and shown as mean±SEM. […]

GPR119 receptor [1] = biological target: T1, GPR119 receptor (Mus musculus, UniProt Q7TQP3); assay: Effect of oral GPR119 agonist on plasma GIP level in GPR119-deficient (knockout) mice compared to wild-type littermates; format: in vivo; conditions: 20 mg/kg per orally; wild-type littermates; time 0 and 5 min after glucose bolus 3 g/kg; FIG. 2A
T1 construct: from tissue; host or cells: whole animal: wild-type male mice dosed orally, compared with GPR119-deficient littermates
T1 sequence (Q7TQP3 1-335): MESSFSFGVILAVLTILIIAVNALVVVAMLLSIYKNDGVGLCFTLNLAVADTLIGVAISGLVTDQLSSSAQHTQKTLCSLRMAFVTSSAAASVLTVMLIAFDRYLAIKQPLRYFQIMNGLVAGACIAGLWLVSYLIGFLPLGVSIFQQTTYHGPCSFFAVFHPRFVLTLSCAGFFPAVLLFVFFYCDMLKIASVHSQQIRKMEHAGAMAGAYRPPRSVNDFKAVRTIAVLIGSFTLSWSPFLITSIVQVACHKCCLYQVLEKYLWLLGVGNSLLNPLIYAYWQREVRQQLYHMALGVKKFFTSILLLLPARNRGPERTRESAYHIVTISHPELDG
Procedure: (§1) A. GPR119-deficient male mice and wild-type littermates were fasted for 18 hours. Mice were administered per orally with vehicle (PET; 80% PEG400, 10% ethanol, 10% Tween80) or with a GPR119 agonist in accordance with the present invention (Compound 1Z; (2-Fluoro-4-methanesulfonyl-phenyl)-{6-[4-(3-isopropyl-[1,2,4]oxadiazol-5-yl)-piperidin-1-yl]-5-nitro-pyrimidin-4-yl}-amine) at 20 mg/kg, as indicated (n=5). Thirty minutes after treatment, blood (100 microliter) was collected via retro orbital vein of the eye (time 0) followed by a glucose bolus at 3 g/kg (per orally). Five minutes after delivering glucose, another blood sample (100 microliter) was collected (time 5 minutes). Plasma were collected after centrifugation and GIP levels were determined by using a rodent GIP ELISA kit purchased from Linco Research Laboratory [Rat/Mouse Gastric Inhibitory Polypeptide (Total) ELISA Catalog #EZRMGIP-55K], following instructions provided by the supplier. […]
(§2) B. GPR119-deficient male mice and wild-type littermates were fasted for 18 hours. […] Plasma were collected after centrifugation and GIP levels were determined by using a rodent GIP ELISA kit purchased from Linco Research Laboratory [Rat/Mouse Gastric Inhibitory Polypeptide (Total) ELISA Catalog #EZRMGIP-55K], following instructions provided by the supplier. […]

GPR119 receptor [2] = assay: as above; format: in vivo; conditions: 20 mg/kg per orally vs vehicle PET; blood at time 0 and 5 min after glucose bolus 3 g/kg; FIG. 2A
Procedure: as §1, §2

In the case of `CC(C)c1noc(C2CCN(c3ncnc(Nc4ccc(S(C)(=O)=O)cc4F)c3[N+](=O)[O-])CC2)n1` [Compound 1Z, (2-Fluoro-4-methanesulfonyl-phenyl)-{6-[4-(3-isopropyl-[1,2,4]oxadiazol-5-yl)-piperidin-1-yl]-5-nitro-pyrimidin-4-yl}-amine], the “level of GIP in the blood of the mice (glucose-dependent and glucose-independent)” value (blood GIP level; glucose bolus 3 g/kg 30 min after treatment, plasma at 0 (no glucose bolus), 2, 5, 10, 20, 40, 60 min) is reported as “increased both a glucose-dependent and a glucose-independent level of GIP”, the “plasma total GIP” value (blood GIP level; glucose bolus 3 g/kg, time course 0-60 min) is reported as “stimulated plasma total GIP” and the “plasma total GIP in wild-type mice” value (GPR119 receptor [1]) is reported as “stimulated plasma total GIP in the wild-type mice”. The “glucose-independent and glucose-dependent level of GIP in the blood, GPR119-deficient vs wild-type mice” value (GPR119 receptor [2]) was “functional GPR119 receptor was necessary for the administered GPR119 agonist to increase a glucose-independent level and a glucose-dependent level of GIP”.
